Consider one compound from US20230310435A1, “HOST DEFENSE PROTEIN (HDP) MIMETICS FOR PROPHYLAXIS AND/OR TREATMENT OF INFLAMMATORY DISEASES OF THE GASTROINTESTINAL TRACT” (priority 2015, published 2023).

Where a name gives a salt, the structure may show the parent alone. Read-outs that look alike come from different tables or passages of the source.

In data set [1] the test system is LPS-induced CINC-3 release, NR8383 cells. The data set is described as follows: LPS-induced CINC-3 (CXCL2) release in NR8383 rat alveolar macrophages (ELISA). It counts as cell-based. To be noted: Macrophage, 8-hour brilacidin and LPS exposure, read-out: IC50, inhibition of LPS-induced CINC-3 release. Here is the method:
To examine the effect of brilacidin on production in cells of cytokine-induced neutrophil chemoattractant-3 (CINC-3; CXCL2), rat alveolar macrophage (NR8383) cells were pretreated with a range of brilacidin concentrations for 45 minutes, followed by treatment with 1 μg/ml LPS from E. coli (Sigma, St. Louis, MO) for 8 hours in the presence of brilacidin. After 8 hours, supernatants were collected for CINC-3 measurement by ELISA. CINC-3 was measured using an immunoassay kit according to manufacturer's instructions (R&D Systems, Minneapolis, MN).
(§1) PDE4 and PDE3 inhibition results in subsequent down-regulation of pro-inflammatory cytokines/chemokines and its regulators, and experiments were conducted to confirm such down-regulation by brilacidin in ex vivo cell-based assays. In these assays, cells were exposed to brilacidin 45 minutes before an 8-hour lipopolysaccharide (LPS) stimulation in the presence of brilacidin; cytokine/enzyme concentrations were determined by ELISA using a standard immunoassay kit.
For orientation: In an ELISA, binding on a coated surface is turned into a signal by an enzyme label.

Data set [2] concerns LPS-induced MMP-9 release, NR8383 cells. The data set is described as follows: LPS-induced MMP-9 release in NR8383 rat macrophages (ELISA). The format is cell-based. The protocol:
Method for FIG. 9. […] After 8 hours, supernatants were collected for MMP9 measurement by ELISA using immunoassay kit (R&D Systems, Minneapolis, MN) according to manufacturer's instructions.
The MMP-9 inhibition assay was performed according to the Method described for FIG. 9.
as §1

Data set [3] in a line: Plasma pharmacokinetics after IV or PO administration (Study 16009-12001). The format is in vivo, male Balb/c mice. The following applies: male mice; for Cmax: read-out: Cmax (peak concentration). The text has this:
Method for FIG. 11. […] The test article, PMX-30063, was corrected for salt form but no adjustment was made for purity. […] The resulting formulation was clear colorless solution (pH 7) and was stored at room temperature until administered. The formulated solution was clear and colorless until dosing was completed.
A total of 60 male Balb/c mice, approximately 4-7 weeks of age at receipt with body weight of 18.0 g to 21.9 g were used in this study.
Three mice in each group were used for blood at each time point at post-dose at 5 minutes, 15 minutes, 30 minutes, 1, 2, 4, 8, and 24 hours for Groups 1-2. Blood samples (at least 300 μL/sample) were collected via cardiac puncture after euthanasia by carbon dioxide inhalation at appropriate time points. Samples were placed in tubes containing K2-EDTA, and then centrifuged at approximately 8,000 rpm for 6 minutes at 4° C. and the resulting plasma were separated and stored frozen at approximately −80° C.
The pharmacokinetic (PK) analysis were conducted by Medicilon Preclinical Research (Shanghai) LLC. The PK parameters were determined by the Study Director for the test article from mean concentration-time data in the test species. A non-compartmental module of WinNonlin™ Professional 5.2 was used to calculate parameters. Any BLQs (LLOQ=2.5 ng/mL for plasma and LLOQ=500 ng/g for small intestine) were replaced with a value of “0”, and the mean value and its standard deviation (SD) are calculated with these replaced values.
Plasma samples (50 μL) were transferred to centrifuge tube, then 250 μL IS solution (50 ng/mL Carvedilol) was added to it. After vortexing for 1 minute and centrifuging for 5 minutes at 15,000 rpm, 100 μL aliquots of supernatant were transferred to glass autosampler vials.

The test system of data set [4] is LPS-induced TNF-α release, NR8383 cells. The data set is described as follows: LPS-induced TNF-α production in NR8383 rat macrophages (ELISA). It counts as cell-based. Here is the method: Method for FIG. 5. TNF-alpha assays were performed using PMX-30063. […] TNF-α concentrations in the supernatants were determined by ELISA using an immunoassay kit specific for rat TNF-α (R&D Systems, Minneapolis, MN) according to manufacturer's instructions.
Method for FIG. 6. TNF-alpha assays were performed using PMX-60056. NR8383 rat macrophage cells were pretreated with PMX-60056 for 45 minutes followed by treatment with 1 μg/ml LPS from E. coli (Sigma, St. Louis, MO) for 8 hours. TNF-α concentrations in the supernatants were determined by ELISA using an immunoassay kit specific for rat TNF-α (R&D Systems, Minneapolis, MN) according to manufacturer's instructions.
The TNF-α inhibition assay was performed according to the Method described for FIG. 5. […] TNF-α concentrations in the supernatants were determined by ELISA using an immunoassay kit specific for rat TNF-α (R&D Systems).
The TNF-α inhibition assay was performed according to the Method described for FIG. 6. NR8383 rat macrophage cells (CRL-2192. ATCC) were pretreated with PMX-60056 for 45 minutes followed by treatment with 1 μg/ml LPS for 8 hours. TNF-α concentrations in the supernatants were determined by ELISA using an immunoassay kit specific for rat TNF-α (R&D Systems).
as §1

The IC50 is the concentration that gives 50% inhibition. Usually AUC(0-inf) stands for total exposure, with the tail of the curve extrapolated. High values mean high exposure, low ones low exposure. Broadly, the AUC(0-t) is the area under the concentration-time curve up to a stated or last time point. The Tmax is the time at which the peak concentration occurs. For orientation: half-life means how long it takes for the measured level to halve. A low value points to rapid decline. What is called inhibition is the drop in the measured response relative to a control, in per cent. Read a low inhibition as a response near the control. `N=C(N)NCCCCC(=O)Nc1cc(C(F)(F)F)cc(NC(=O)c2cc(C(=O)Nc3cc(C(F)(F)F)cc(NC(=O)CCCCNC(=N)N)c3O[C@@H]3CCNC3)ncn2)c1O[C@@H]1CCNC1` [PMX-30063, N^4,N^6-bis(2-((R)-pyrrolidin-3-yloxy)-3-((4-carbamoylbutyl)guanidine)-5-(trifluoromethyl)phenyl)pyrimidine-4,6-dicarboxamide tetrahydrochloride salt]: the half-maximal inhibitory concentration (IC50) in data set [1] amounted to 425 nM. Further, in data set [2] (Rattus norvegicus, Macrophage, NR8383 cells, ELISA, 45 min pretreatment, 8-hour LPS, read-out: IC50, inhibition of LPS-induced MMP-9 release), the IC50 came to 2300 nM. Further, the “decrease in MMP-9 levels” value in data set [2] (at 12.5 μM, NR8383, LPS 1 μg/ml 8 h) came to 50%. Besides, in data set [3] (Balb/c, mouse, IV 5 mg/kg), the AUC(0-inf) came to 97800 ng·h/mL, the AUC(0-t) was determined as 97700 ng·h/mL, the Tmax came to 0.083 h and the clearance was 0.852 mL/min/kg. In data set [3] (Balb/c, mouse, IV 5 mg/kg), the half-life is 2.76 h and the Cmax is 48400 ng/mL. For the same compound, the Vd in data set [3] (Balb/c, mouse, IV 5 mg/kg, read-out: Vz) came to 0.204 L/kg. Further, in data set [3] (Balb/c, mouse, PO 10 mg/kg), the AUC(0-inf) amounted to 113 ng·h/mL, the area under the curve AUC(0-t) turned out to be 111 ng·h/mL, the time of peak concentration (Tmax) came to 2 h and the half-life is 1.26 h. The Cmax in data set [3] (Balb/c, mouse, PO 10 mg/kg) is 33.7 ± 8.56 ng/mL. In data set [3] (IV 5 mg/kg), the “MRT(0-∞)” value came to 2.86 H. The “F*” value in data set [3] (PO 10 mg/kg vs IV 5 mg/kg) stood at 0.0579%. Further, in data set [3] (PO 10 mg/kg), the “MRT(0-∞)” value is recorded as 2.68 H. Further, in data set [4] (NR8383, 45 min pretreatment, 1 μg/ml LPS 8 h), the “effect on LPS-induced TNF-α production (in words)” value is “inhibited”. In data set [4] (Rattus norvegicus, Macrophage, 8 h), this compound registered an inhibition at 0.5 µM of roughly 50%. Also, the IC50 in data set [4] (Rattus norvegicus, Macrophage, NR8383 cells, ELISA, 45 min pretreatment, 8-hour LPS, read-out: IC50, inhibition of LPS-induced TNF-α release) amounted to 442 nM.
